{"source": "patent US20100280255A1", "about": "“PROCESS FOR MAKING SUBSTITUTED 2-AMINO-THIAZOLONES” (AMGEN INC., priority 2007, published 2010)", "origin": "cited, not measured here", "key": {"normal subjects": {"tested_on": "normal subjects", "conditions": "ingestion"}, "healthy human volunteers": {"tested_on": "healthy human volunteers", "conditions": "healthy human volunteers treated"}}, "data": [{"smiles": "CC1(C)[C@@H](OC(=O)CCC(=O)O)CC[C@]2(C)[C@H]3C(=O)C=C4[C@@H]5C[C@@](C)(C(=O)O)CC[C@]5(C)CC[C@@]4(C)[C@]3(C)CC[C@@H]12", "note": "[carbenoxolone]", "values": [{"measurement": "reduction of the intraocular pressure", "setting": "normal subjects", "result": 20, "unit": "%"}, {"measurement": "negative effect (of glucocorticoids) on bone nodule formation", "setting": "bone nodule formation", "result": "blocked"}, {"measurement": "hepatic insulin sensitivity", "setting": "healthy human volunteers", "result": "improved"}]}]}
